Test results published in paper PMC6522510 (Nature Communications, 2019).

Key:
Parameters in all cases: species or system AML cell lines (8); Primary HTS, single concentration about 10 uM, Cell Titer Glo viability; log10 luminescence, per cent inhibition relative to cycloheximide control
Conditions in all cases: 72 h, relative to cycloheximide control, log10 luminescence; inhibitor
[1] = system: CHRF288-11
[2] = system: MOLM-13
[3] = system: U937
[4] = system: MV4-11
[5] = system: M07e
[6] = system: CMS
[7] = system: ML-2
[8] = system: CMK

In the case of CN(C)CCCn1c(-c2nonc2N)nc2cnccc21 [SJ000573146-1, NB100580-138A1], the CHRF288-11 %inh [1] is reported as -1.122%, the MOLM-13 %inh [2] is reported as -2.29% and the U937 %inh [3] is reported as 0.1912%. It also gave an MV4-11 %inh [4] of -1.385%, an M07e %inh [5] of -3.074% and a CMS %inh [6] of -2.565%. The ML-2 %inh [7] was -0.381% and the CMK %inh [8] was 9.262%.
In the case of O=C(Nc1n[nH]c2cc(-c3ccc(F)cc3)ccc12)C1CC1 [SJ000573147-1, VB100064-137A1], the CHRF288-11 %inh [1] is reported as 23.72%, the MOLM-13 %inh [2] is reported as 13.56% and the U937 %inh [3] is reported as 28.55%. For the same compound, the MV4-11 %inh [4] was -2.4%, the M07e %inh [5] was 6.083% and the CMS %inh [6] was -1.795%. It also gave an ML-2 %inh [7] of 9.118% and a CMK %inh [8] of 55.62%.
Work on O=C1NC(=O)C(c2ccc(Cl)cc2)=C1Nc1ccc(Cl)c(C(=O)O)c1 [SJ000573148-1, DH98298-170B2] yielded a CHRF288-11 %inh [1] of -1.873%, an MOLM-13 %inh [2] of -3.138% and a U937 %inh [3] of -3.231%. For the same compound, the MV4-11 %inh [4] was -6.646%, the M07e %inh [5] was -2.934% and the CMS %inh [6] was -1.744%. It also gave an ML-2 %inh [7] of 0.6305% and a CMK %inh [8] of -5.939%.
O=C(Nc1ccc(Oc2ccc3[nH]c(NC(=O)c4ccccc4)nc3c2)cc1)Nc1cc(C(F)(F)F)ccc1F [SJ000573149-1, T261/94/4] gave a CHRF288-11 %inh [1] of 9.652%, an MOLM-13 %inh [2] of 108.7% and a U937 %inh [3] of 43.21%. The MV4-11 %inh [4] was 91.44%, the M07e %inh [5] was 22.27% and the CMS %inh [6] was 32.92%. For the same compound, the ML-2 %inh [7] was 33.71% and the CMK %inh [8] was 59.46%.
CS(=O)(=O)CCNCc1ccc(-c2ccc3ncnc(Nc4ccc(OCc5cccc(F)c5)c(C(F)(F)F)c4)c3c2)o1 [SJ000573152-1, U14859/108/1] showed a CHRF288-11 %inh [1] of 2.26%, an MOLM-13 %inh [2] of 2.035% and a U937 %inh [3] of 2.673%. It also gave an MV4-11 %inh [4] of 3.001%, an M07e %inh [5] of 0.4672% and a CMS %inh [6] of -1.451%. The ML-2 %inh [7] was 2.813% and the CMK %inh [8] was -0.9918%.
O=C(Nc1n[nH]c2nc(-c3ccc(O)cc3)c(Br)cc12)C1CC1 [SJ000573153-1, AN100368-079A1] was tested, and the CHRF288-11 %inh [1] was 61.88%, the MOLM-13 %inh [2] was 85.66% and the U937 %inh [3] was 31.9%. For the same compound, the MV4-11 %inh [4] was 59.64%, the M07e %inh [5] was 20.28% and the CMS %inh [6] was 105%. For the same compound, the ML-2 %inh [7] was 13.84% and the CMK %inh [8] was 121.4%.
For c1ccc(Oc2ccc(Nc3ncc(-c4ccccc4)o3)cc2)cc1 [SJ000573154-1, U15924/95/2], the CHRF288-11 %inh [1] was -6.587%, the MOLM-13 %inh [2] was -2.365% and the U937 %inh [3] was 3.231%. It also gave an MV4-11 %inh [4] of -2.884%, an M07e %inh [5] of -0.6223% and a CMS %inh [6] of -3.51%. The ML-2 %inh [7] was 0.5718% and the CMK %inh [8] was -2.277%.
With COc1cccc(-n2ncc3c(N/N=C/c4ccc(C(=O)NCCN(C)C)cc4)ncnc32)c1 [SJ000573155-1, U16945/190/1] the CHRF288-11 %inh [1] was 128.6%, the MOLM-13 %inh [2] was 33.75% and the U937 %inh [3] was 26.01%. The MV4-11 %inh [4] was 45.9%, the M07e %inh [5] was 23.03% and the CMS %inh [6] was 51.58%. The ML-2 %inh [7] was 12.67% and the CMK %inh [8] was 38.62%.
Compound CCn1c(-c2nonc2N)nc2ccccc21 [SJ000573156-1, U17602/18/1 | JT100597-005A1] has a CHRF288-11 %inh [1] of -4.898%, an MOLM-13 %inh [2] of -2.502% and a U937 %inh [3] of -1.491%. For the same compound, the MV4-11 %inh [4] was -3.157%, the M07e %inh [5] was 0.4432% and the CMS %inh [6] was -3.86%. For the same compound, the ML-2 %inh [7] was 2.051% and the CMK %inh [8] was -4.724%.
With Cc1cc(-c2ccco2)cc(C)c1/C=C/c1cncc(-c2nn[nH]n2)c1 [SJ000573157-1, T209/165/1] the CHRF288-11 %inh [1] was 6.913%, the MOLM-13 %inh [2] was -1.72% and the U937 %inh [3] was -2.587%. It also gave an MV4-11 %inh [4] of -0.5767%, an M07e %inh [5] of 4.709% and a CMS %inh [6] of 1.933%. It also gave an ML-2 %inh [7] of 0.8109% and a CMK %inh [8] of -3.964%.
COC(=O)Nc1nc2ccc(Oc3ccc(NC(=O)Nc4cccc(Cl)c4)cc3)cc2[nH]1 [SJ000573158-1, T278/6/1] was tested, and the CHRF288-11 %inh [1] was 9.893%, the MOLM-13 %inh [2] was 98.07% and the U937 %inh [3] was 93.62%. It also gave an MV4-11 %inh [4] of 87.76%, an M07e %inh [5] of 46.36% and a CMS %inh [6] of 11.78%. For the same compound, the ML-2 %inh [7] was 61.89% and the CMK %inh [8] was 60.27%.
With ON=C1CCc2cc(-c3nc(C4CCNCC4)[nH]c3-c3ccncc3)ccc21 [SJ000573159-1, DD48690-004A1] the CHRF288-11 %inh [1] was -1.561%, the MOLM-13 %inh [2] was 2.332% and the U937 %inh [3] was -1.918%. It also gave an MV4-11 %inh [4] of -4.441%, an M07e %inh [5] of 1.161% and a CMS %inh [6] of 1.757%. For the same compound, the ML-2 %inh [7] was 3.813% and the CMK %inh [8] was -2.711%.
Compound O=C(O[C@H]1CN[C@H](C#Cc2cc3ncnc(Nc4ccc5c(ccn5Cc5cc(F)ccc5F)c4)c3s2)C1)N1CCOCC1 [SJ000573160-1, U20298/150/2] has a CHRF288-11 %inh [1] of 10.62%, an MOLM-13 %inh [2] of 10.52% and a U937 %inh [3] of 14.13%. The MV4-11 %inh [4] was 8.297%, the M07e %inh [5] was -0.7728% and the CMS %inh [6] was 12.05%. The ML-2 %inh [7] was 4.843% and the CMK %inh [8] was 5.697%.
In the case of Nc1nonc1-c1nc2cnccc2n1C1CC1 [SJ000573161-1, SD100950-085A1], the CHRF288-11 %inh [1] is reported as 4.079%, the MOLM-13 %inh [2] is reported as 2.819% and the U937 %inh [3] is reported as 17.71%. For the same compound, the MV4-11 %inh [4] was 17.34%, the M07e %inh [5] was -4.33% and the CMS %inh [6] was 4.949%. It also gave an ML-2 %inh [7] of 6.372% and a CMK %inh [8] of 26.4%.
COC(=O)Nc1nc2cc(Oc3ccc(NC(=O)Nc4cccc(C(=O)O)c4)cc3)ccc2[nH]1 [SJ000573163-1, T261/87/3] showed a CHRF288-11 %inh [1] of 17.31%, an MOLM-13 %inh [2] of 34.2% and a U937 %inh [3] of 31.9%. The MV4-11 %inh [4] was 11.57%, the M07e %inh [5] was 13.83% and the CMS %inh [6] was 3.532%. The ML-2 %inh [7] was 30.21% and the CMK %inh [8] was 83.28%.
NC(=O)c1cccc(Nc2nccc(Nc3cccc(F)c3)n2)c1 [SJ000573164-1, R5869/121/5] gave a CHRF288-11 %inh [1] of 8.575%, an MOLM-13 %inh [2] of 57.29% and a U937 %inh [3] of 1.036%. The MV4-11 %inh [4] was 21.87%, the M07e %inh [5] was 12.07% and the CMS %inh [6] was 5.376%. The ML-2 %inh [7] was 3.111% and the CMK %inh [8] was 19.08%.
For COC(=O)Nc1nc2cc(Oc3ccc(NC(=O)Nc4ccccc4)cc3)ccc2[nH]1 [SJ000573165-1, T261/64/2], the CHRF288-11 %inh [1] was 29.47%, the MOLM-13 %inh [2] was 87.75% and the U937 %inh [3] was 81.37%. For the same compound, the MV4-11 %inh [4] was 69.12%, the M07e %inh [5] was 91.37% and the CMS %inh [6] was 99.63%. The ML-2 %inh [7] was 57.46% and the CMK %inh [8] was 109.7%.
With Cc1nnc(-c2ccc(C)c(-c3ccc(C(=O)NCc4ccc(Cl)cc4)cc3)c2)o1 [SJ000573166-1, R5419/62/6] the CHRF288-11 %inh [1] was -0.1255%, the MOLM-13 %inh [2] was 2.185% and the U937 %inh [3] was 3.066%. It also gave an MV4-11 %inh [4] of -0.3161%, an M07e %inh [5] of 6.199% and a CMS %inh [6] of 4.153%. The ML-2 %inh [7] was 2.787% and the CMK %inh [8] was 2.525%.
In the case of NC(=O)c1sc(-n2cnc3ccc(C(F)(F)F)cc32)cc1OCc1ccccc1Br [SJ000573167-1, U19121/196/1], the CHRF288-11 %inh [1] is reported as 1.336%, the MOLM-13 %inh [2] is reported as 2.5% and the U937 %inh [3] is reported as 43.5%. For the same compound, the MV4-11 %inh [4] was 1.988%, the M07e %inh [5] was 5.031% and the CMS %inh [6] was 15.36%. For the same compound, the ML-2 %inh [7] was 22.34% and the CMK %inh [8] was -1.461%.
